Source: patent publication US20250136595A1, “ACYLATED HETEROCYCLIC QUINAZOLINE DERIVATIVES AS INHIBITORS OF ERBB2” (Enliven Inc., priority 2022, published 2025)

What was measured:
Ba/F3 ERBB2 YVMA = Ba/F3 ERBB2 YVMA (Homo sapiens, UniProt P04626, DUP772-775, cells depend on it); assay: Cell viability assay (CellTiter Glo) in Ba/F3 cells engineered to express ERBB2 YVMA; type: cell-based, mouse; details: Ba/F3 cells expressing human ERBB2 YVMA mutant, 72 hours, % viability, read-out: Ba/F3 ERBB2 YVMA IC50
Sequence of Ba/F3 ERBB2 YVMA (P04626 with tags, fused parts or gaps DUP772-775): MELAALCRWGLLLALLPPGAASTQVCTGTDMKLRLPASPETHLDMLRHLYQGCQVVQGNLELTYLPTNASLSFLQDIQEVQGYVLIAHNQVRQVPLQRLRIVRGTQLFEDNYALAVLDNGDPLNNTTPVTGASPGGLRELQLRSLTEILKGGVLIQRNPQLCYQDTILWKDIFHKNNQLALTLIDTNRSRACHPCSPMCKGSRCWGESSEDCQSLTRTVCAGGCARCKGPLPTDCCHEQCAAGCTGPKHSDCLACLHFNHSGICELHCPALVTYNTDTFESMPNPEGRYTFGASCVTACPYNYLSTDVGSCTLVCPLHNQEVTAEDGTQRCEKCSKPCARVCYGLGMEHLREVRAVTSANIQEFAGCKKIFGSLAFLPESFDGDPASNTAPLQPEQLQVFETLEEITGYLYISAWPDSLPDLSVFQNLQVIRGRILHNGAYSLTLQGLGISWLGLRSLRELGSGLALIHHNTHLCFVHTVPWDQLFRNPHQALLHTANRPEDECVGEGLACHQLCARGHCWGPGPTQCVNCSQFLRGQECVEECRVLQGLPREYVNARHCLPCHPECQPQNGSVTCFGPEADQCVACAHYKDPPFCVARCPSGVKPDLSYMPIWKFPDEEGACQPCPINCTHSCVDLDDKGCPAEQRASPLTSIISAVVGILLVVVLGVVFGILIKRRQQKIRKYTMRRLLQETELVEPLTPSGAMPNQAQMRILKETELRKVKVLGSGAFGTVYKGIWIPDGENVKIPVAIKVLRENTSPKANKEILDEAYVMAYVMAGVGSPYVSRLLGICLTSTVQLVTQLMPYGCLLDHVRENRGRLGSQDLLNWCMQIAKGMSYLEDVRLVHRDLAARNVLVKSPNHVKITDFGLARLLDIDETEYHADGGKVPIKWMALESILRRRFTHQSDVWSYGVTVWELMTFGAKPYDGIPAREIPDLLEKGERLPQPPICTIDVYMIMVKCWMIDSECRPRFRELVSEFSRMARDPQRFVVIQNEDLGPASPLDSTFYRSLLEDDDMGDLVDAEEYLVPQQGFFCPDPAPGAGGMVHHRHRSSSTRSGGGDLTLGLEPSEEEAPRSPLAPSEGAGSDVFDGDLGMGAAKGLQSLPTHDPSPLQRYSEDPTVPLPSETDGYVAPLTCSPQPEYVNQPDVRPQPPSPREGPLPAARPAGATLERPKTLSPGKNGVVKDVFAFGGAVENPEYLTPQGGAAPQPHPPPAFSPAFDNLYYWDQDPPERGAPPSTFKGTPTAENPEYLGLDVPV
Protocol: Cells were treated with compounds, and cell viability was measured as a metric of kinase inhibition.
The Ba/F3 cell line is IL-3-dependent mouse cell line derived from the C3H mouse strain. Ba/F3 cell lines were engineered to express human ERBB2 or EGFR kinases, rendering the cells IL-3 independent. The lines were generated via retroviral transduction utilizing a Moloney murine leukemia virus (MMLV) promoter, and constructs are stably integrated into the cell genome. The sequences of the ERBB2 and EGFR genes used were NCBI Reference Sequences NM_004448.3 and NM_005228.3, respectively.
Similarly, Ba/F3 cell lines engineered to express EGFR, ERBB2, or ERBB2 mutants were grown, harvested, counted and seeded at 3000 cells per well in 96-well plates for the data sets shown in Tables B3-B4. A subset of wells contained media only (low control, “LC”).
Table B1 provides the growth media and number of cells seeded per well for the each cell line.
Compounds were dissolved in DMSO and serially diluted. Serially-diluted compound or a DMSO only control (high control, “HC”) was added to the plated cells in each well. […] The final proportion of DMSO never exceeded 0.1%.
Plates were placed in a 37° C., 5% CO2 incubator for 72 hours. Plates were then removed from the incubator and equilibrated for 15 minutes at room temperature. 40 μl of CellTiter Glo reagent (Promega) was added to measure the relative level of metabolically active cells by quantifying intracellular ATP concentrations. Plates were incubated for 30 minutes at room temperature, and luminescence was measured. Percent viability was normalized to a vehicle control only using the following formula: % viability=100×(Lumsample−LumLC)/(LumHC−LumLC). Graphical curves were fitted using a nonlinear regression model with a sigmoidal dose response.

[1] = target: T1, phosphorylated ERBB2 (pERBB2) (Homo sapiens, UniProt P04626); assay: Detection of phosphorylated ERBB2 (pERBB2) by ELISA in BT-474 cells; type: cell-based; details: four hour incubation with compound
T1 construct: endogenous in cells; host or cells: BT-474
T1 sequence (P04626 23-1255): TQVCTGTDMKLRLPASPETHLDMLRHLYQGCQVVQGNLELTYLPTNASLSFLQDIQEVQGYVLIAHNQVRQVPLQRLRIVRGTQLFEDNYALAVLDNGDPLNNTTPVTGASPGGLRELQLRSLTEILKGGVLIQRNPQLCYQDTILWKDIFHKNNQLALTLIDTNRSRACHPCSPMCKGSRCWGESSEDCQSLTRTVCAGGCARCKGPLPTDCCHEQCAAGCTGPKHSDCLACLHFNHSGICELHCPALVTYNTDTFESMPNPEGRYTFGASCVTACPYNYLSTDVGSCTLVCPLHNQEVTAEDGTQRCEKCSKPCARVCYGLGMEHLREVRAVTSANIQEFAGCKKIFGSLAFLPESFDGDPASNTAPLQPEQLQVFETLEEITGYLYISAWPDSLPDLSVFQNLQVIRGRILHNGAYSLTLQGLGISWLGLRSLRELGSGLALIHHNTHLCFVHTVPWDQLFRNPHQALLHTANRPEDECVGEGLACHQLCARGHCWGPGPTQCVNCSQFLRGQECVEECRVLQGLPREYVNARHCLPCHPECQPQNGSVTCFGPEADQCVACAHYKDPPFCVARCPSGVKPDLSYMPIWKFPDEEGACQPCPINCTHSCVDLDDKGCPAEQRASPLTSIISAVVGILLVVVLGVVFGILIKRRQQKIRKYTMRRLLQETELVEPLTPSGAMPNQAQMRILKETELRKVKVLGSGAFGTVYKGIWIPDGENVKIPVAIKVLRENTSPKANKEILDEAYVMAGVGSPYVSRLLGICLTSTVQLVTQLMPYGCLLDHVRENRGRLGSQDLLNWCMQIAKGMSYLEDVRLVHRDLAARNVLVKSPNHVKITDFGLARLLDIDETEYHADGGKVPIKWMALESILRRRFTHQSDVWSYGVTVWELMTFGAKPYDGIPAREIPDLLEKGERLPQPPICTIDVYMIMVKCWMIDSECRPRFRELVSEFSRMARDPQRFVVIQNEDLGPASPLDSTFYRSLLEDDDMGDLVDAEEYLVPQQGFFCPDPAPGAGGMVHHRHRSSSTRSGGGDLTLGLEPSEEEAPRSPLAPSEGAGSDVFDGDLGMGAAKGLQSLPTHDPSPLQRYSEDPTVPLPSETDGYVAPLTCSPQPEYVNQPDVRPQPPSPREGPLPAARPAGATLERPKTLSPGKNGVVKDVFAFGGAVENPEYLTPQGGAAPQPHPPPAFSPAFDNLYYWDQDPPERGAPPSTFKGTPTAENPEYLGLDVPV
Protocol: BT-474 cells were seeded into a 96-well at 2.0*10^4 cells/100 μl/well. Compounds were dissolved and serially diluted in DMSO. The compounds were then were added, mixed, and incubated for four hours at 37° C., 5% CO2. Compounds were added using four-fold dilutions at final concentrations ranging from 10 μM to 0.01 nM. Following the four hour incubation with compounds, cell lysates were prepared. Plates were centrifuged for 5 min at 3000 RPM, and supernatant was removed from each well. Cells were washed 3 times by resuspension in 150 μl PBS, followed by centrifugation and removal of the supernatant, as above. […] Cells were incubated with lysis buffer for 1 hour at 4° C., and then stored at -80° C. Enzyme-linked immunosorbent assays (ELISA) were performed to measure phosphorylated ERBB2 levels. […] The next day, plates were washed with PBS+0.05% Tween20 (PBST). 150 μl of 5% BSA blocking solution was added for 1 hour at room temperature, with shaking. Plates were washed with PBST. Cell lysates were thawed and 100 μl of lysate was added to the ELISA plate. The plates were incubated for 2 hours at room temperature, with shaking. […] Plates were incubated for 1 hour at room temperature, with shaking. Plates were then washed with PBST, and 100 μl TMB substrate solution (R&D Systems, cat #DY999) was added. Plate were incubated in the dark for 20 minutes at room temperature. 50 μl of Stop solution (R&D Systems, cat #DY994) (50 μl) was added to each well and mixed. Optical density at 450 nm was read on an EnSpire plate reader (Perkin Elmer). The remaining kinase activity by calculated using the following formula: % Relative activity=100×([…]). The low and high control values (“LC” and “HC”) were generated from lysate from wells without cells or with cells treated with 0.1% DMSO, respectively.

[2] = target: T2, phosphorylated EGFR (pEGFR) (Homo sapiens, UniProt P00533); assay: Detection of phosphorylated EGFR (pEGFR) in EGF-stimulated A431 cells (AlphaLISA); type: cell-based; details: A431 cells (10% FBS), 4 hours incubation, EGF 30 ng/mL for 10 minutes
T2 construct: performed to measure phosphorylated EGFR levels using A431 cells; endogenous in cells; host or cells: A431
T2 sequence (P00533 25-1210): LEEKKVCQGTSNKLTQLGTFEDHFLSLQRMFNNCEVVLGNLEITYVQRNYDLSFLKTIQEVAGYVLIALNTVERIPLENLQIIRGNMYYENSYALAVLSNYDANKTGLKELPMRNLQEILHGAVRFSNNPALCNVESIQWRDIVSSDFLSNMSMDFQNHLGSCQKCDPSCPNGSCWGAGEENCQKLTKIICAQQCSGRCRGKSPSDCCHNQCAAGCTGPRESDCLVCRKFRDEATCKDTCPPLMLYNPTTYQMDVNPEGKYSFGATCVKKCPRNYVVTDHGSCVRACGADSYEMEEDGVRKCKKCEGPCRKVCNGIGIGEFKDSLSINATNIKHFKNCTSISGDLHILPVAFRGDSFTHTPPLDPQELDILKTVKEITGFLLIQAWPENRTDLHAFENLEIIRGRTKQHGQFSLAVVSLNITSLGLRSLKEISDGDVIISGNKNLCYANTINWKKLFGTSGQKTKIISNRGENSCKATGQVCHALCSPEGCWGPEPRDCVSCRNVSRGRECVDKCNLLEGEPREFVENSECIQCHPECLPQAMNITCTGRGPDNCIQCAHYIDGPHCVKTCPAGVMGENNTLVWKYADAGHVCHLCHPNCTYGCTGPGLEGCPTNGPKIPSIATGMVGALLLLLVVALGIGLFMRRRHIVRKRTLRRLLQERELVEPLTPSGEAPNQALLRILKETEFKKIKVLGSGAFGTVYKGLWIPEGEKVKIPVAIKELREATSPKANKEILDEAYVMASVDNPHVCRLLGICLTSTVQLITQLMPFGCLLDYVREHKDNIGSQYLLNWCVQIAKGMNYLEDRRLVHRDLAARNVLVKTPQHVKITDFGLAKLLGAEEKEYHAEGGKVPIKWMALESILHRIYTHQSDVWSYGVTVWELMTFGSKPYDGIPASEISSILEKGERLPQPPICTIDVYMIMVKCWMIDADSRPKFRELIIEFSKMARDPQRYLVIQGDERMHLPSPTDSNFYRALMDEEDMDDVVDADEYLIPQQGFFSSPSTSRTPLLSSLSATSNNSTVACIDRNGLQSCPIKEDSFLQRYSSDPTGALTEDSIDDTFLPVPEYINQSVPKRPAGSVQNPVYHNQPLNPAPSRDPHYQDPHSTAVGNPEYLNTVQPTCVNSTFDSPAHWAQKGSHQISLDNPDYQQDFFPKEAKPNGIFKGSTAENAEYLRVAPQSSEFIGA
Protocol: Enzyme-linked immunosorbent assays (ELISA) were performed to measure phosphorylated EGFR levels using A431 cells (10% FBS). A431 (1.0*10^4 cells/40 μl/well) cells were seeded in 384 well. Compounds were dissolved in DMSO, serially diluted in DMSO and then were added, mixed, and incubated for 4 hours at 37° C., 5% CO2. Following the 4-hours incubation, cells were stimulated for 10 minutes with EGF (Invitrogen, cat #PHG0311) at a final concentration of 30 ng/mL in the incubator. The media was aspirated and cells were lysed in 10 μL lysis buffer with protease and phosphatase inhibitors (PerkinElmer, cat #ALSU-PEGFR-A50K). The plates were placed on a shaker for 5 minutes and then incubated for 30 min at 4° C. for complete lysis. The lysate was transferred to an Optiplate (Perkin Elmer, cat #6007290).
Acceptor mix (PerkinElmer, cat #ALSU-PEGFR-A50K) was prepared just before use and 5 μL was dispensed to all the wells, followed by a 1.5-2 h incubation at room temperature in dark. The donor mix (PerkinElmer, cat #ALSU-PEGFR-A50K) was prepared under low light conditions prior to use and 5 μl of donor mix was added to all the wells under subdued lighting or green filters. The plates were placed on a shaker for 5 min, sealed, and incubated overnight at room temperature in dark. Plates were read on the Envision (PerkinElmer) using standard AlphaLISA settings.
The percentage of inhibition on EGFR phosphorylation was calculated following equation: % Inhibition=100×(LumHC−LumSample)/(LumHC−LumLC). The low and high controls (LC/HC) are generated from lysate from wells with cells treated with DMSO or […] Staurosporine (BioAustralis, cat #BIA-S1086), […]. IC50 values were calculated by fitting the Curve using XLfit (v5.3.1.3), equation 201: Y=Bottom+ (Top−Bottom)/(1+10^((LogIC50−X)*HillSlope)).

IC50 [1] [nM]	IC50 [2] [nM]	SMILES	GI50 (Ba/F3 ERBB2 YVMA) [nM]
5.68	328	C=CC(=O)N1CC[C@H](Oc2ccc3ncnc(Nc4ccc(Oc5ccn6ncnc6c5)c(C)c4)c3c2)C1 [Compound 1, (S)-1-(3-((4-((4-([1,2,4]triazolo[1,5-a]pyridin-7-yloxy)-3-methylphenyl)amino)quinazolin-6-yl)oxy)pyrrolidin-1-yl)prop-2-en-1-one]	8.98
48.2	2690	C=CC(=O)N1CCN(c2cc3c(Nc4ccc(OC5CCN(C(=O)C6CCCC6)CC5)c(C)c4)ncnc3cn2)CC1 [Compound 2, 1-(4-(4-((4-((1-(cyclopentanecarbonyl)piperidin-4-yl)oxy)-3-methylphenyl)amino)pyrido[3,4-d]pyrimidin-6-yl)piperazin-1-yl)prop-2-en-1-one]	20.3
43	1680	C=CC(=O)N1CCN(c2cc3c(Nc4ccc(OC5CCN(C(=O)CC(C)(C)C)CC5)c(C)c4)ncnc3cn2)CC1 [Compound 3, 3,3-dimethyl-1-{4-[2-methyl-4-({6-[4-(prop-2-enoyl)piperazin-1-yl]pyrido[3,4-d]pyrimidin-4-yl}amino)phenoxy]piperidin-1-yl}butan-1-one]	40.2
8.44	371	C=CC(=O)N1CCN(c2ccc3ncnc(Nc4ccc(Oc5ccn6ncnc6c5)c(C)c4)c3n2)CC1 [Compound 4, 1-(4-{4-[(3-methyl-4-{[1,2,4]triazolo[1,5-a]pyridin-7-yloxy}phenyl)amino]pyrido[3,2-d]pyrimidin-6-yl}piperazin-1-yl)prop-2-en-1-one]	8.19
17	476	C=CC(=O)N1CC2CC(C1)N2c1ccc2ncnc(Nc3ccc(Oc4ccn5ncnc5c4)c(C)c3)c2n1 [Compound 5, 1-(6-{4-[(3-methyl-4-{[1,2,4]triazolo[1,5-a]pyridin-7-yloxy}phenyl)amino]pyrido[3,2-d]pyrimidin-6-yl}-3,6-diazabicyclo[3.1.1]heptan-3-yl)prop-2-en-1-one]	18
13.9	134	C=CC(=O)N1CC2CC1CN2c1ccc2ncnc(Nc3ccc(Oc4ccn5ncnc5c4)c(C)c3)c2n1 (stereo not drawn) [Compound 6, 1-(5-{4-[(3-methyl-4-{[1,2,4]triazolo[1,5-a]pyridin-7-yloxy}phenyl)amino]pyrido[3,2-d]pyrimidin-6-yl}-2,5-diazabicyclo[2.2.1]heptan-2-yl)prop-2-en-1-one]	5.65
13	694	C=CC(=O)N1CCN(c2ccc3ncnc(Nc4ccc(Oc5ccn6ncnc6c5)c(C)c4)c3c2)CC1 [Compound 7, 1-(4-{4-[(3-methyl-4-{[1,2,4]triazolo[1,5-a]pyridin-7-yloxy}phenyl)amino]quinazolin-6-yl}piperazin-1-yl)prop-2-en-1-one]	8.65
27.1	5170	CC#CC(=O)N1CCN(c2ccc3ncnc(Nc4ccc(Oc5ccn6ncnc6c5)c(C)c4)c3n2)CC1 [Compound 8, 1-(4-{4-[(3-methyl-4-{[1,2,4]triazolo[1,5-a]pyridin-7-yloxy}phenyl)amino]pyrido[3,2-d]pyrimidin-6-yl}piperazin-1-yl)but-2-yn-1-one]	18.9
10.7	1030	C=CC(=O)N1CCN(c2ccc3ncnc(Nc4ccc(Oc5ccn6ncnc6c5)c(C)c4)c3n2)C[C@@H]1C [Compound 9, 1-[(2S)-2-methyl-4-{4-[(3-methyl-4-{[1,2,4]triazolo[1,5-a]pyridin-7-yloxy}phenyl)amino]pyrido[3,2-d]pyrimidin-6-yl}piperazin-1-yl]prop-2-en-1-one]	7.5
8.74	294	C=CC(=O)N1CCN(c2ccc3ncnc(Nc4ccc(Oc5ccn6ncnc6c5)c(C)c4)c3n2)C[C@H]1C [Compound 10, 1-[(2R)-2-methyl-4-{4-[(3-methyl-4-{[1,2,4]triazolo[1,5-a]pyridin-7-yloxy}phenyl)amino]pyrido[3,2-d]pyrimidin-6-yl}piperazin-1-yl]prop-2-en-1-one]	4.61
16.3	2360	C=CC(=O)N1CCN(c2ccc3ncnc(Nc4ccc(Oc5ccn6ncnc6c5)c(C)c4)c3n2)[C@H](C)C1 [Compound 11, 1-[(3R)-3-methyl-4-{4-[(3-methyl-4-{[1,2,4]triazolo[1,5-a]pyridin-7-yloxy}phenyl)amino]pyrido[3,2-d]pyrimidin-6-yl}piperazin-1-yl]prop-2-en-1-one]	17.9
13.6	1180	C=CC(=O)N1CCN(c2ccc3ncnc(Nc4ccc(Oc5ccn6ncnc6c5)c(C)c4)c3n2)[C@@H](C)C1 [Compound 12, 1-[(3S)-3-methyl-4-{4-[(3-methyl-4-{[1,2,4]triazolo[1,5-a]pyridin-7-yloxy}phenyl)amino]pyrido[3,2-d]pyrimidin-6-yl}piperazin-1-yl]prop-2-en-1-one]	7.49
97.5	> 10000	C=C(F)C(=O)N1CCN(c2ccc3ncnc(Nc4ccc(Oc5ccn6ncnc6c5)c(C)c4)c3n2)CC1 [Compound 13, 2-fluoro-1-(4-{4-[(3-methyl-4-{[1,2,4]triazolo[1,5-a]pyridin-7-yloxy}phenyl)amino]pyrido[3,2-d]pyrimidin-6-yl}piperazin-1-yl)prop-2-en-1-one]	232
	5430	CC#CC(=O)N1C2CC1CN(c1ccc3ncnc(Nc4ccc(Oc5ccn6ncnc6c5)c(C)c4)c3n1)C2 [Compound 29, 1-(3-{4-[(3-methyl-4-{[1,2,4]triazolo[1,5-a]pyridin-7-yloxy}phenyl)amino]pyrido[3,2-d]pyrimidin-6-yl}-3,6-diazabicyclo[3.1.1]heptan-6-yl)but-2-yn-1-one]	35.9
		Cc1cc(Nc2ncnc3ccc(NC4=NC(C)(C)CO4)cc23)ccc1Oc1ccn2ncnc2c1 [Tucatinib, tucatinib, reference compound]	356
